According to PubChem BioAssay AID1918937 (Molecular Pharmacology Branch, DTP, NCI, 2023):
“And” between values parts separate entries of the source, which are not always exact repeats. Equal values may be shown once. One block for each compound: values may come before it.

Test system: 521955-158-R2-J5-PDC complex spheroid viability
Test: Anticancer human tumor 521955-158-R2-J5-PDC patient-derived pancreatic carcinoma cell line growth inhibition
Conditions: for viability, T/C: stronger effect = lower value
Outline: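 Complex spheroids of tumor cells with HUVEC and human MSCs, exposed to iadademstat combined with other agents. Each agent tested in half-log steps from near clinical Cmax (else 10 microM top), DMSO ≤0.25%.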

[1] = curve of first compound, second compound 0.1 µM
[2] = curve of first compound, second compound 0.316 µM
[3] = curve of first compound, second compound 1 µM
[4] = curve of first compound, second compound 3.16 µM
[5] = curve of first compound, second compound 10 µM
[6] = second compound 0.1 µM, first compound 0.000316 µM
[7] = second compound 0.1 µM, first compound 0.001 µM
[8] = second compound 0.1 µM, first compound 0.00316 µM
[9] = second compound 0.1 µM, first compound 0.01 µM
[10] = second compound 0.1 µM, first compound 0.0316 µM
[11] = second compound 0.1 µM, first compound 0.1 µM
[12] = second compound 0.316 µM, first compound 0.000316 µM
[13] = second compound 0.316 µM, first compound 0.001 µM
[14] = second compound 0.316 µM, first compound 0.00316 µM
[15] = second compound 0.316 µM, first compound 0.01 µM
[16] = second compound 0.316 µM, first compound 0.0316 µM
[17] = second compound 0.316 µM, first compound 0.1 µM
[18] = second compound 1 µM, first compound 0.000316 µM
[19] = second compound 1 µM, first compound 0.001 µM
[20] = second compound 1 µM, first compound 0.00316 µM
[21] = second compound 1 µM, first compound 0.01 µM
[22] = second compound 1 µM, first compound 0.0316 µM
[23] = second compound 1 µM, first compound 0.1 µM
[24] = second compound 3.16 µM, first compound 0.000316 µM
[25] = second compound 3.16 µM, first compound 0.001 µM
[26] = second compound 3.16 µM, first compound 0.00316 µM
[27] = second compound 3.16 µM, first compound 0.01 µM
[28] = second compound 3.16 µM, first compound 0.0316 µM
[29] = second compound 3.16 µM, first compound 0.1 µM
[30] = second compound 10 µM, first compound 0.000316 µM
[31] = second compound 10 µM, first compound 0.001 µM
[32] = second compound 10 µM, first compound 0.00316 µM
[33] = second compound 10 µM, first compound 0.01 µM
[34] = second compound 10 µM, first compound 0.0316 µM
[35] = second compound 10 µM, first compound 0.1 µM
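Note: spheroids exposed to agents for seven days.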
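Throughout, for viability, T/C: percent of DMSO vehicle control luminescence viability.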

Compound: CC[C@@]1(O)C(=O)OCc2c1cc1n(c2=O)Cc2cc3c(CN(C)C)c(O)ccc3nc2-1 + NC1CCC(NC2CC2c2ccccc2)CC1
IC50 [1]: 4.87 nM | IC50 [2]: 4.89 nM | IC50 [3]: 4.35 nM | IC50 [4]: 4.78 nM | IC50 [5]: 4.55 nM | viability, T/C [6]: 100% | viability, T/C [7]: 104% | viability, T/C [8]: 72.3% | viability, T/C [9]: 12.8% | viability, T/C [10]: 7.11% | viability, T/C [11]: 5.58% | viability, T/C [12]: 101% | viability, T/C [13]: 97.2% | viability, T/C [14]: 72.9% | viability, T/C [15]: 12.2% | viability, T/C [16]: 6.01% | viability, T/C [17]: 4.82% | viability, T/C [18]: 97.3% | viability, T/C [19]: 97.5% | viability, T/C [20]: 64.7% | viability, T/C [21]: 11.7% | viability, T/C [22]: 6.84% | viability, T/C [23]: 5.45% | viability, T/C [24]: 96.7% | viability, T/C [25]: 94.9% | viability, T/C [26]: 70.5% | viability, T/C [27]: 13.2% | viability, T/C [28]: 6.25% | viability, T/C [29]: 4.49% | viability, T/C [30]: 104% | viability, T/C [31]: 105% | viability, T/C [32]: 67% | viability, T/C [33]: 13.1% | viability, T/C [34]: 6.18% | viability, T/C [35]: 4.49%

Compound: CC1COCCN1c1cc(-c2ccnn2C)c2ccnc(-c3ccn[nH]3)c2n1 (stereo not given)
viability, T/C (compound 0.00316 µM): 10.8% and 14.6% | viability, T/C (compound 0.01 µM): 10.8% and 12.3% | viability, T/C (compound 0.0316 µM): 11.1% and 13% | viability, T/C (compound 0.1 µM): 18.1% and 21.3% | viability, T/C (compound 0.316 µM): 21.6% and 24.3% | viability, T/C (compound 1 µM): 12.5% and 17.1% | IC50 (curve of compound): < 3.16 nM

Compound: CC(C)CC(NC(=O)CNC(=O)c1cc(Cl)ccc1Cl)B1OC(=O)CC(CC(=O)O)(C(=O)O)O1 (stereo not given) + NC1CC1c1ccc(-c2cccc(O)c2)cc1
IC50 [1]: 5.71 nM | IC50 [2]: 5.63 nM | IC50 [3]: 5.49 nM | IC50 [4]: 5.37 nM | IC50 [5]: 4.75 nM | viability, T/C [6]: 83.1% | viability, T/C [7]: 91.7% | viability, T/C [8]: 86.8% | viability, T/C [9]: 15.1% | viability, T/C [10]: 0.96% | viability, T/C [11]: 0.46% | viability, T/C [12]: 73.4% | viability, T/C [13]: 90.5% | viability, T/C [14]: 89.2% | viability, T/C [15]: 15.8% | viability, T/C [16]: 0.53% | viability, T/C [17]: 0.18% | viability, T/C [18]: 81.3% | viability, T/C [19]: 83.6% | viability, T/C [20]: 87.3% | viability, T/C [21]: 13% | viability, T/C [22]: 0.98% | viability, T/C [23]: 0.23% | viability, T/C [24]: 76.3% | viability, T/C [25]: 86.2% | viability, T/C [26]: 83.8% | viability, T/C [27]: 12.3% | viability, T/C [28]: 0.68% | viability, T/C [29]: 0.23% | viability, T/C [30]: 87.6% | viability, T/C [31]: 93.7% | viability, T/C [32]: 72.7% | viability, T/C [33]: 8.29% | viability, T/C [34]: 0.39% | viability, T/C [35]: 0.24%

Continued, in another order:

IC50 (curve of compound): > 3000 nM and 619 nM
Compound: O=C(C=Cc1cccc(S(=O)(=O)Nc2ccccc2)c1)NO
viability, T/C (compound 0.00949 µM): 114% | viability, T/C (compound 0.03 µM): 108% and 119% | viability, T/C (compound 0.0949 µM): 91.1% and 104% | viability, T/C (compound 0.3 µM): 48.3% and 70.4% | viability, T/C (compound 0.949 µM): 10.4% and 38.4%

IC50 (curve of compound): 154 nM and > 1000 nM
Compound: COc1cc(Nc2ncc3c(n2)-c2ccc(Cl)cc2C(c2c(F)cccc2OC)=NC3)ccc1C(=O)O
viability, T/C (compound 0.00316 µM): 46.9% and 75.9% | viability, T/C (compound 0.01 µM): 56.3% and 81.6% | viability, T/C (compound 0.0316 µM): 57.4% and 74.7% | viability, T/C (compound 0.1 µM): 46.7% and 67.2% | viability, T/C (compound 0.316 µM): 49% and 61.8% | viability, T/C (compound 1 µM): 42% and 61.7%
